The text below walks through data of the pKa sets of Baltruschat and Czodrowski (2020).

A word on the pKa: it is the pH at which an ionisable group is half protonated. Higher therefore signals a group that holds its proton tightly. Consider `CCOC(=O)C1CCCCC1=O` (configuration not stated), for which, for the setting “acidic group”, the pKa turned out to be 11.9.

Turning to `c1ccc(-c2nnn[nH]2)cc1`, for the setting “acidic group”, the pKa stood at 4.03.

In turn, `Cc1cc(N)nc(Nc2ccc(Cl)cc2)n1` gave a pKa (basic group) of 6.6.

Regarding `CN(C)C(=S)NCC(=O)O`, the pKa (acidic group) stood at 3.71.

On to `N[C@H]1C[C@@H]1N`, for which the pKa (basic group) was 8.82.

For the compound `COc1ccc2c3c1O[C@H]1CCC[C@H]4[C@H](NCC[C@]314)[C@H]2O`, the pKa (basic group) was determined as 8.72.

Compound `CN(C1=NCCO1)c1ccccc1` displayed a pKa (basic group) of 8.51.

As for `CN(C)CCCN=C(c1ccccc1)c1ccccc1`, the pKa (basic group) stood at 9.4.

As for `c1ccc(C2=NSC(N3CCOCC3)=NS2)cc1`, the pKa (basic group) turned out to be 8.33.

With `CCCC(=O)c1cc(C(C)=O)n[nH]1`, the pKa (acidic group) stood at 9.28.

Consider `CC(C)[C@@H]1CC[C@@H](C)C[C@@H]1N`, for which the pKa (basic group) came out at 10.5.

With `Oc1ccccc1/C=N/c1ncc2nc[nH]c2n1`, the pKa (acidic group) was found to be 9.19 and the pKa (basic group) amounted to 3.38.

With `CC(=O)c1ccc(O)c2ncccc12`, the pKa (acidic group) came to 7.75 and the pKa (basic group) worked out at 4.

With `CC(C)c1nnn[nH]1`, the pKa (acidic group) was 5.55.

In the case of `O[n+]1ccc(OCc2ccccc2)cc1`, the pKa (acidic group) was determined as 1.99.

Compound `Cc1ccc(S(=O)(=O)N[C@@H](CCC(N)=O)C(=O)[O-])cc1` showed a pKa (acidic group) of 11.8.

Compound `O=C(O)[C@@H]1O[C@H](Oc2ccc3[nH+]cccc3c2)[C@@H](O)[C@H](O)[C@H]1O` had a pKa (acidic group) of 3.

Under “acidic group”, `Cc1cc(/N=N/c2nc3ccccc3s2)c(O)c2ncccc12` gave a pKa of 9.6.

The compound `CC[NH+](CC)Cc1cc([N+](=O)[O-])c2ccccc2c1O` came in with a pKa (acidic group) of 2.82.

Consider `COc1cnc[nH+]c1O`, for which, under “acidic group”, the pKa stood at 1.75.

Regarding `C[n+]1cccc2c(O)cccc21`, under “acidic group”, the pKa was 6.12.

On to `CN(c1ccccc1)C(C)(C)C`, for which the pKa (basic group) is 7.5.

As to `CC(C)=CCC1C(=O)C(CC=C(C)C)(CC=C(C)C)C(O)(C(=O)O)C1=O` (configuration not stated), where the note is “acidic group”, the pKa turned out to be 3.9.

For the setting “basic group”, `C#C[C@]1(O)C[C@H](C)N(C)[C@@H]2CCCC[C@H]21` registered a pKa of 9.22.

For the setting “basic group”, `OCCN1CCOCC1` displayed a pKa of 7.18.

Consider `C=CC(CC(C)(C)CC(C)(C)C)c1ccc2cccnc2c1O` (configuration not stated), for which the pKa stood at 10 (acidic group) and 4.51 (basic group).

Take `CC1(C)S[C@H]2C(C(=O)[O-])[NH+]=C(CCCC([NH3+])C(=O)[O-])N2C1C(=O)O` (some centres not stated): under “acidic group”, the pKa was 3.1.

On to `O=[N+]([O-])c1cccc(S(=O)O)c1`, for which, for the setting “acidic group”, the pKa worked out at 1.21.

As for `Cc1ccc([N+](=O)[O-])cc1/C(=N/CCCN(C)C)c1ccccc1`, the pKa (basic group) amounted to 8.8.

As to `CCCCCCCNc1ccccc1`, for the setting “basic group”, the pKa stood at 5.09.

`Cn1ccnc1-c1ccccn1` displayed a pKa (basic group) of 5.7.

Take `CC(=O)CC(C)=O`: the pKa (acidic group) was determined as 8.85.

With `N[C@H]1CCC[C@H]1C(=O)Oc1ccc([N+](=O)[O-])cc1`, where the note is “basic group”, the pKa stood at 8.36.

Regarding `NOCc1ccccc1`, where the note is “basic group”, the pKa came out at 4.34.

Turning to `Oc1cccc2ccnnc12`, the pKa (acidic group) stood at 8.25 and the pKa (basic group) was 2.72.

Where the note is “basic group”, `Cc1ccc(CN)cc1N` returned a pKa of 9.77.

With `CC[NH2+]CCC(=O)O`, for the setting “acidic group”, the pKa turned out to be 3.61.

As for `CCN(CC)CC(=O)NC1CCc2ccccc21` (configuration not stated), the pKa (basic group) turned out to be 8.19.

The compound `C=C=CC(=O)O` had a pKa (acidic group) of 3.96.

Compound `CCCN1CC(O[Si](C)(C)C)C1` showed a pKa (basic group) of 8.89.

`CC(C)(S)[C@@H](C(=O)O)n1cc[nH+]c1Cc1ccccc1`: the pKa (acidic group) is 2.81.

On to `CC[C@@H]1C(=O)OC[C@@H]1Cc1cncn1C`, for which the pKa (basic group) stood at 6.99.

For `O=[N+]([O-])c1ccncc1`, the pKa (basic group) was found to be 1.86.

Compound `Brc1c[nH]cn1` gave a pKa (basic group) of 3.8.

Turning to `COC(=O)c1cc(O)c(O)c(O)c1C[NH+](C)C`, the pKa (acidic group) is 6.8.

Regarding `Cc1cc(O)ccc1[N+](C)(C)C`, the pKa (acidic group) was 8.34.

As for `Cn1c(=S)ccc2ccccc21`, the pKa (basic group) was -1.6.

The compound `Cc1ccc2ccc(C)nc2c1` displayed a pKa (basic group) of 5.01.

On to `NCCC(=O)N[C@@H](Cc1c[nH]cn1)C(=O)[O-]`, for which the pKa (basic group) worked out at 9.61.

In turn, `CC(CC[NH+](C)C)NN` (configuration not stated) gave a pKa (basic group) of 5.9.

Under “acidic group”, `CNc1ccc(S(=O)(=O)Nc2nc(C)cs2)cc1` registered a pKa of 6.63.

Take `O=CO`: the pKa (acidic group) was found to be 3.69.

`CCOc1cccc(C(=O)N[C@@H]2C[C@H]3CC[C@@H](C2)N3Cc2ccccc2)c1OC` registered a pKa (basic group) of 8.78.

For the compound `COc1c(CN)cc(C)cc1CN`, the pKa (basic group) was 8.85.

On to `CCNc1ncnc2[nH]ncc12`, for which the pKa runs as follows: (acidic group) 10.9; (basic group) 4.6.

For the compound `Cc1nnn(CC(=O)O)n1`, the pKa (acidic group) was determined as 2.23.

Turning to `S=C(Nc1ccccc1)c1ccc(Cl)cc1`, under “acidic group”, the pKa was determined as 10.8.

As to `NC(=[NH2+])Nc1nccc(-c2csc(N)n2)n1`, the pKa (basic group) is 2.7.

In turn, `CC1CCNCC1` showed a pKa (basic group) of 10.9.

Under “acidic group”, `OC(c1ccccc1)(c1ccncc1)c1ccncc1` had a pKa of 13.1.

Compound `N#Cc1ccccc1N` returned a pKa (basic group) of 0.95.

`CC(=O)NBr` yielded a pKa (acidic group) of 8.1.

On to `O=C([O-])C[N+](=O)[O-]`, for which, for the setting “acidic group”, the pKa was 8.9.

As for `Nc1cc(O)ccc1O`, the pKa (acidic group) was determined as 10.1.

For the compound `C#CCC(=O)O`, for the setting “acidic group”, the pKa was found to be 3.31.

For `CN1CCC(n2nc(-c3ccccc3)c(Cc3ccccc3)c2[O-])CC1`, the pKa (basic group) was 9.13.

As for `[NH3+]CCCCCc1cccnc1`, under “basic group”, the pKa is 5.61.

Under “basic group”, `c1ccc(CN(CC2=NCCN2)c2ccccc2)cc1` yielded a pKa of 10.1.

`CC(C)C=O` came in with a pKa (basic group) of 15.7.

As for `NCCC[n+]1ccc2c([N+](=O)[O-])cccc2c1`, the pKa (basic group) was 8.48.

`C[C@H]1O[C@H](O[C@H]2CC[C@H]([n+]3ccc(N)nc3O)O[C@@H]2C)[C@H](O)[C@@H](O)[C@@H]1[NH+](C)C`: the pKa (acidic group) turned out to be 3.9.

`CCCNC(C)C(=O)Nc1ccccc1C` (configuration not stated): the pKa (basic group) came to 7.32.

Under “acidic group”, `Oc1ccc2cccc(I)c2c1` gave a pKa of 8.98.

For the compound `CSc1nc(N)n[nH]1`, the pKa (basic group) worked out at 3.27.

On to `CCN(CC)C(=S)NC(=O)c1cccc(F)c1`, for which the pKa (acidic group) amounted to 8.21.

For the compound `[O-][n+]1ccc(NO)c2ccccc21`, under “acidic group”, the pKa was determined as 9.52.

In turn, `NCC(=O)c1ccc(O)cc1` displayed a pKa (basic group) of 8.05.

Regarding `c1ccc(-c2cccc(-c3ccccn3)n2)nc1`, the pKa (basic group) worked out at 4.66.

`O=C(O)[C@]1(Cl)[C@@H]2CCC[C@@H]21` came in with a pKa (acidic group) of 2.82.

Consider `CCCCCCCCCc1c(-c2ccccc2)nn(-c2ccccc2)c1O`, for which, for the setting “acidic group”, the pKa amounted to 7.2.

With `Nc1ccnc([O-])n1`, under “basic group”, the pKa stood at 12.2.

For `Cc1nc2[nH]c(=O)[nH]c(=O)c2[nH]1`, the pKa (basic group) worked out at 3.1.

The compound `Cc1[nH]c(-c2ccccc2S)[nH+]c1C` gave a pKa (acidic group) of 3.9.

Consider `COc1cc(S(C)(=O)=O)cc(C(=O)N[C@@H]2C[C@H]3CC[C@@H](C2)N3Cc2ccccc2)c1OC`, for which the pKa (basic group) was 8.92.

On to `O=C(O)C(=O)Cc1ccccc1`, for which the pKa (acidic group) came out at 2.68.

On to `NC(Cc1ccncc1)C(=O)[O-]` (configuration not stated), for which the pKa (basic group) stood at 9.22.

Turning to `NC(=O)c1c2cccc1COCCOCc1ncc([nH]1)COCCOC2`, the pKa (basic group) turned out to be 5.72.

`Cc1csc(-c2ccc(NS(=O)(=O)c3ccc(N)cc3)cc2)n1` registered a pKa (acidic group) of 8.5.

`O=C1NC(C(=O)O)CC1O` (configuration not stated): the pKa (acidic group) was 3.8.

For the compound `Cc1cc(Br)cc(C)c1N`, the pKa (basic group) is 3.54.

For the setting “acidic group”, `NC(=O)C#CC#C/C=C/C(=O)O` registered a pKa of 3.52.

`CCCCCNN` yielded a pKa (basic group) of 6.25.
